Results on eleven compounds are retold here after ChEMBL document CHEMBL1201862, “PubChem BioAssay data set” (2004).

Test systems include A549; BT-549; CCRF-CEM; COLO 205; HCC 2998; HT-29; MCF7; MDA-MB-435; NCI-H226; NCI-H23; NCI-H460; OVCAR-5; SK-OV-3; SNB-19; SW-620; TK-10; U-251; UACC-257; MDA-N.
What all share (experiment): inhibition of tumour cell growth, NCI panel, 48 h

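1) Cells in 96-well plates. 2) Compound, 48 h, 5 concentrations. 3) Linear interpolation between surrounding doses. 4) Unreached endpoint = highest concentration. GI50 marks 50% less growth.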 Activity calls are given as the source filed them. Cut-off read from the data, not from the text of the source: active = GI50 up to about 1.1 µM and inactive = higher.

Consider `CC(=O)O[C@H]1CC[C@@]2(C)C(=C[C@H](c3ccc(O)cc3)[C@H]3[C@@H]4CC[C@H](OC(C)=O)[C@@]4(C)CC[C@@H]32)C1`, for which the GI50 in the assay with A549 is 16.3 µM (inactive); in the assay on BT-549, 14.2 µM (inactive); with CCRF-CEM, 21.3 µM (inactive); in the assay with COLO 205, 19.2 µM (inactive); with HCC 2998, 20.5 µM (inactive); with HT-29 it was 13.6 µM (inactive). For the same compound, the GI50 is 23 µM (inactive) with MCF7; 25.2 µM (inactive) with MDA-MB-435; 17.4 µM (inactive) in the assay with NCI-H226; 19.8 µM (inactive) with NCI-H23; 20.5 µM (inactive) in the assay with NCI-H460; 23.7 µM (inactive) with OVCAR-5. The GI50 with SK-OV-3 is > 100 µM (inactive); in the assay on SNB-19, 19.9 µM (inactive); with SW-620, 22 µM (inactive); in the assay on TK-10, 32.3 µM (inactive); in the assay with U-251 it was 22.1 µM (inactive); in the assay with UACC-257 it was 22 µM (inactive).
As to `CC(C)CC1c2[nH]c3ccccc3c2C[C@H]2C(=O)NC(Cc3c[nH]c4ccccc34)C(=O)N12` (some centres undefined), the GI50 is 12.5 µM (inactive) with A549; 16.9 µM (inactive) in the assay with BT-549; 17.8 µM (inactive) with COLO 205; 14.9 µM (inactive) in the assay on HT-29; 14.8 µM (inactive) with MCF7; 16 µM (inactive) with MDA-MB-435. Moreover, the GI50 is 26.9 µM (inactive) in the assay with NCI-H226; 17.7 µM (inactive) with NCI-H23; 24.7 µM (inactive) with OVCAR-5; 16.5 µM (inactive) with SK-OV-3; 16.8 µM (inactive) in the assay on SNB-19; 18.1 µM (inactive) with SW-620. Besides, the results for the GI50 with TK-10, in the assay with U-251 and with UACC-257 were 4.93 µM (inactive), 12.2 µM (inactive) and 14.3 µM (inactive), respectively.
On to `Cc1[nH]c2ncn3[nH]c(=S)nc3c2c1Cc1ccccc1`, for which the GI50 in the assay with A549 is > 100 µM (inactive); in the assay on BT-549, > 100 µM (inactive); with CCRF-CEM, 76.4 µM (inactive); with COLO 205, > 100 µM (inactive); in the assay on HCC 2998, 92.5 µM (inactive); in the assay on HT-29, > 100 µM (inactive). Also, the GI50 is 52.6 µM (inactive) with MCF7; > 100 µM (inactive) with MDA-MB-435; > 100 µM (inactive) in the assay on NCI-H226; > 100 µM (inactive) with NCI-H23; > 100 µM (inactive) in the assay with NCI-H460; > 100 µM (inactive) in the assay with OVCAR-5. The GI50 in the assay on SK-OV-3, in the assay with SNB-19, with SW-620, with TK-10, in the assay with U-251 and in the assay with UACC-257 was > 100 µM (inactive) throughout.
For the compound `CCOC(=O)Nc1ccc(S(=O)(=O)Nc2ccc(Br)cc2)cc1`, the GI50 in the assay with A549 was 60.1 µM (inactive); with BT-549 it was 35.1 µM (inactive); with CCRF-CEM it was 46.8 µM (inactive); in the assay on COLO 205 it was 14.6 µM (inactive); with HT-29, 33.2 µM (inactive); with MCF7, 23.3 µM (inactive). In addition, the GI50 is 43.5 µM (inactive) in the assay on MDA-MB-435; 37 µM (inactive) in the assay on MDA-N; 31 µM (inactive) with NCI-H23; 23.2 µM (inactive) with NCI-H460; 58.1 µM (inactive) with OVCAR-5; 25.9 µM (inactive) with SK-OV-3. Moreover, the GI50 with SNB-19 was 73.5 µM (inactive); in the assay with SW-620, 24.3 µM (inactive); in the assay with TK-10 it was 43.1 µM (inactive); in the assay with U-251 it was 43 µM (inactive); in the assay with UACC-257 it was 61.4 µM (inactive).
For `COc1cc2c3c(n(C)c(=O)c2cc1OC)-c1cc2c(cc1/C3=C\CCCI)OCO2`, the GI50 in the assay on A549 was 38.9 µM (inactive); in the assay on BT-549 it was 1.7 µM (inactive); with CCRF-CEM, 1.29 µM (inactive); with COLO 205 it was 18.1 µM (inactive); in the assay on HT-29, 20.4 µM (inactive); in the assay on MCF7, 2.91 µM (inactive). Also, the GI50 with MDA-MB-435 is 19.3 µM (inactive); with MDA-N it was > 70.8 µM (inactive); with NCI-H226, 1.34 µM (inactive); in the assay on NCI-H23, 12.2 µM (inactive); with NCI-H460, 5.42 µM (inactive); with OVCAR-5, > 4.65 µM (inactive). Besides, the GI50 is 20.9 µM (inactive) in the assay with SK-OV-3; 13.7 µM (inactive) in the assay on SNB-19; 0.533 µM (active) in the assay on SW-620; 0.649 µM (active) with TK-10; 4.21 µM (inactive) in the assay with U-251; > 100 µM (inactive) in the assay on UACC-257.
Take `CC1=C[C@@H](C)C[C@]2(C)CC[C@H](O2)[C@]23CC[C@](C)(C[C@H](O2)[C@@H]2O[C@@](C)(CC2=O)[C@@H](O)[C@H]2CC[C@@]4(CCC[C@@H](O4)[C@H](C)C(=O)O[C@H]4C[C@H]([C@]5(O)OCC[C@H](C)[C@@H]5O)O[C@H]4C=C1)O2)O3`: the GI50 was 0.0035 µM (active) with A549; 0.0024 µM (active) in the assay on BT-549; 0.00188 µM (active) with CCRF-CEM; 0.00127 µM (active) with COLO 205; 0.075 µM (active) in the assay on HCC 2998; 0.00226 µM (active) in the assay on HT-29. The GI50 is 0.0371 µM (active) in the assay with MDA-MB-435; 0.0233 µM (active) in the assay on MDA-N; 0.00157 µM (active) in the assay with NCI-H226; 0.0118 µM (active) in the assay on NCI-H23; 0.00429 µM (active) in the assay on NCI-H460; 0.0186 µM (active) in the assay on OVCAR-5. Moreover, the GI50 is 0.00757 µM (active) in the assay with SK-OV-3; 0.0244 µM (active) with SNB-19; 0.0684 µM (active) with SW-620; 0.00545 µM (active) in the assay on TK-10; 0.0146 µM (active) in the assay with U-251; 0.0148 µM (active) in the assay with UACC-257.
Consider `CCC/C(C)=N/NC(=S)SC.CCC/C(C)=N/NC(=S)SC.[Zn+2]`, for which the GI50 with A549 was 12.6 µM (inactive); with BT-549, 10.6 µM (inactive); in the assay on CCRF-CEM, 2.16 µM (inactive); with COLO 205, 14.2 µM (inactive); in the assay with HT-29, 3.07 µM (inactive); in the assay with MCF7, 7.24 µM (inactive). Further, the GI50 in the assay with MDA-MB-435 was 11.4 µM (inactive); in the assay on NCI-H226, 12.6 µM (inactive); in the assay on NCI-H23 it was 13.7 µM (inactive); in the assay on NCI-H460 it was 16 µM (inactive); with OVCAR-5, 10.3 µM (inactive); with SK-OV-3, 16.2 µM (inactive). The GI50 is 16.2 µM (inactive) in the assay on SNB-19; 9.44 µM (inactive) with SW-620; 11.6 µM (inactive) in the assay with TK-10; 1.84 µM (inactive) with U-251; 7.46 µM (inactive) in the assay with UACC-257.
For the compound `O=c1[nH]c(=O)n(C2CC(O)C(CO)O2)cc1OCCCc1ccccc1` (centres undefined), the GI50 in the assay on A549, in the assay on BT-549, in the assay on CCRF-CEM, in the assay with COLO 205, in the assay with HT-29 and with MCF7 was > 100 µM (inactive) throughout. Further, the GI50 with MDA-MB-435, in the assay with MDA-N, in the assay on NCI-H226, in the assay with NCI-H23, in the assay with NCI-H460 and in the assay on OVCAR-5 was > 100 µM (inactive) each time. Further, the GI50 with SK-OV-3, in the assay with SNB-19, in the assay with TK-10, in the assay on U-251 and with UACC-257 was > 100 µM (inactive) each time.
As to `CC(C)(C)n1nc(C2CC2)cc1NC(=O)Nc1ccc(Cl)cc1`, the GI50 in the assay with A549, in the assay on BT-549, with COLO 205, with HCC 2998, in the assay on HT-29 and in the assay on MCF7 was > 100 µM (inactive) each time. In addition, the GI50 in the assay with MDA-MB-435, in the assay on NCI-H226, in the assay with NCI-H23, in the assay with NCI-H460, with OVCAR-5 and in the assay with SK-OV-3 was > 100 µM (inactive) each time. Also, the GI50 with SNB-19, with SW-620, in the assay on TK-10, with U-251 and in the assay on UACC-257 was > 100 µM (inactive) in each case.
Regarding `Brc1ccc(-c2cn3ccncc3n2)cc1`, the GI50 in the assay on A549, in the assay with BT-549, with CCRF-CEM, with COLO 205, in the assay on HT-29 and with MCF7 was > 100 µM (inactive) throughout. The GI50 with MDA-MB-435, in the assay with MDA-N, in the assay on NCI-H226, with NCI-H23, in the assay with NCI-H460 and with OVCAR-5 was > 100 µM (inactive) in each case. Further, the GI50 in the assay on SK-OV-3 is > 100 µM (inactive); with SNB-19 it was > 100 µM (inactive); with TK-10, > 100 µM (inactive); in the assay with U-251, > 100 µM (inactive); in the assay on UACC-257, 14.9 µM (inactive).
Take `N=c1oc2ccc(Cl)cc2cc1C(N)=O`: the GI50 was 42.6 µM (inactive) with A549; 35.2 µM (inactive) with BT-549; 40.6 µM (inactive) with CCRF-CEM; 36.6 µM (inactive) in the assay with COLO 205; 25.7 µM (inactive) in the assay on HCC 2998; 38.5 µM (inactive) with HT-29. For the same compound, the GI50 was 31.7 µM (inactive) with MDA-MB-435; 25.1 µM (inactive) in the assay on MDA-N; 28.2 µM (inactive) in the assay on NCI-H226; 22.4 µM (inactive) in the assay with NCI-H23; 30.8 µM (inactive) in the assay with NCI-H460; 27 µM (inactive) with OVCAR-5. The GI50 is > 100 µM (inactive) in the assay on SK-OV-3; 26.7 µM (inactive) in the assay on SNB-19; 45.9 µM (inactive) in the assay with SW-620; 40.4 µM (inactive) in the assay on U-251; 45.4 µM (inactive) in the assay with UACC-257.
